This assay in a line: Binding affinity by its ability to displace [3H]DPDPE from delta receptor in homogenates of guinea pig brain.
As usually defined, the Ki is a measure of affinity in units of concentration, obtained from inhibition or displacement. Low readings indicate higher affinity, high ones lower affinity. On to `COc1cccc2c1[C@]13CCN(C)[C@H](C2)[C@]1(OC)CCC(=O)C3` [3,10-dimethoxy-17-methyl-(10S)-17-azatetracyclo[7.5.3.01,10.02,7]heptadeca-2(7),3,5-trien-13-one], for which the Ki amounted to 46 nM.

Take `COc1cccc2c1[C@]13CCN(CCc4ccccc4)C(C2)[C@]1(OC)CCC(=O)C3` [3,10-dimethoxy-17-phenethyl-17-azatetracyclo[7.5.3.01,10.02,7]heptadeca-2(7),3,5-trien-13-one; with HBr]: affinity was put at a Ki of 49 nM.

For the compound `COc1cccc2c1[C@]13CCN(CC4CC4)[C@H](C2)[C@]1(OC)CCC(=O)C3` [Naltrindole analogue], the Ki was determined as 105 nM.

The record behind these values is BindingDB's records for doi:10.1016/0960-894X(95)00325-N (1995).
